Assay results: patent publication US20250032468A1, “OCULAR SURFACE TOPICAL ADMINISTRATION OF ROFLUMILAST FOR TREATMENT OF ANTERIOR AND RETINAL-VITREOUS CHAMBER OCULAR DISEASES” (IOLYX THERAPEUTICS, INC., priority 2023, published 2025)
Read-outs that look alike come from different tables or passages of the source.

What was measured:
[1] = rabbit, in vivo
Experimental: (§1) A study was conducted to evaluate toxicity outcomes of repeated topical ocular administration of roflumilast. Male and female New Zealand white rabbits (n=7 per group) were administered: (a) vehicle-based placebo three times a day; (b) a 0.1% w/v roflumilast formulation (Example 3) three times a day; (c) a 0.3% w/v roflumilast formulation (Example 3) three times a day; or (d) a 1.0% w/v roflumilast formulation (Example 3) three times a day. In the study, male and female New Zealand White rabbits received 13 weeks of topical treatment, three times a day, followed by a four-week recovery period, in four dose arms, 0%, 0.1%, 0.3%, and 1% concentration of roflumilast. In addition to regular safety and well-being checks, animals were given regular ophthalmic exams, measurement of weight, tonometry to test intraocular pressure, clinical chemistry and hematological evaluation, and other routine checks of health and well being. At the point of study termination, ocular tissues and major organs were tested for macro- and microscopic observation. […] Parameters evaluated included body weight, intraocular pressure (IOP), and central corneal thickness (CCT).

[2] = Ocular pigment binding, equilibrium sepia melanin association (Covance, method by Koeberle et al.); assay type: in vitro ADME
[3] = 13-week repeated topical ocular administration toxicity study in rabbits (Example 11); settings: for intraocular pressure: FIG. 15
Experimental: as §1

[4] = Ocular tissue concentration of roflumilast after 5 days topical ocular dosing (Example 8, Table 7); assay type: in vivo, Dutch belted rabbits
Experimental: Two unique animal studies were conducted to assess the concentration of roflumilast in various tissues following administration of different concentrations of Example 3. The concentration in various tissues was assessed following five days of administration of the following dosing regimens: (a) 1% w/v roflumilast three times a day (TID); (b) 0.3% w/v roflumilast three times a day (TID); or (c) 0.1% w/v roflumilast two times a day (BID). In one study encompassing (a) and (b), n=6 Dutch belted rabbits per dose arm were dosed topically three times per day according to arm on days 1 to 4, and on day 5, a single dose was given at hour 0. In a different study with the same methodologies and practices, n=21 Dutch belted rabbits represented in group (c) were dosed two times per day on days 1 to 4, and on day 5, a single dose was given at hour 0. […] In the original study conducted solely with arm (c), a dose curve was created using time points at 0.5, 2, 4, 8, and 24 hours. To reduce the number of animals in the second experiment, for group (a) and (b), only 0.5 and 8 hours were tested. FIG. 1 provides data for the concentration of roflumilast (ng/g) in the iris ciliary body (ICB) as a function of time following: (a) 1% w/v roflumilast administered three times a day; (b) 0.3% w/v roflumilast administered three times a day; or (c) 0.1% w/v roflumilast administered two times a day. FIG. 2 provides data for the concentration of roflumilast (ng/g) in the aqueous humor (AH) as a function of time following: (a) 1% w/v roflumilast administered three times a day; (b) 0.3% w/v roflumilast administered three times a day; or (c) 0.1% w/v roflumilast administered two times a day. FIG. 3 provides data for the concentration of roflumilast (ng/g) in the retina/choroid/retina pigment epithelium (RPE) as a function of time following: (a) 1% w/v roflumilast administered three times a day; (b) 0.3% w/v roflumilast administered three times a day; or (c) 0.1% w/v roflumilast administered two times a day. […] (Claveau, 2004) This ratio is shown at both 0.5 hours, closest to a Cmax time point, and 8 hrs, which would be a time point close to a redosing time point for a TID dosing.

[5] = Saturation concentration of roflumilast in the suspension formulation; assay type: physicochemical; settings: formulation characteristic used in the simulation
Experimental: Computational modeling of topical ophthalmic roflumilast dosing was carried out using an ocular simulation computer program based on Matlab® (Mathworks, Natick, MA) programming language using a runtime Java® applet for a graphical user-friendly interface. Physiological and anatomic parameters for the ocular simulation were customized to model the pigmented rabbit eye, by entering appropriate volumes of distribution and surface areas of anterior and posterior compartment tissues. […] Based on these parameters, theoretical calculations were carried out for all simulations, while for matching concentrations with actual experimental data the model was used for comparison, fitting, and optimization.

[6] = 13-week repeated topical ocular administration study in dogs (Example 10)
Excerpt: (§2) In the study, male and female dogs (n=3M/3F per arm to week 13, 2M/2F to additional 4 week recovery) received 13 weeks of topical treatment, three times a day, followed by a four week recovery period, in four dose arms, 0%, 0.1%, 0.3%, and 1% concentration of roflumilast. In addition to regular safety and well-being checks, animals were given regular ophthalmic exams, measurement of weight, tonometry to test intraocular pressure, pachymetery to test corneal thickness, clinical chemistry and hematological evaluation, and other routine checks of health and well-being. At the point of study termination, ocular tissues and major organs were tested for macro- and microscopic observation.

PDE4 A, B, D = settings: also printed as 0.07 ng/g; cited from earlier work
[7] = dog, in vivo
Excerpt: as §2

## O=C(Nc1c(Cl)cncc1Cl)c1ccc(OC(F)F)c(OCC2CC2)c1 [Roflumilast, N-(3,5-dichloropyrid-4-yl)-3-cyclopropylmethoxy-4-difluoromethoxybenzamide]
[1]
  tolerability: well tolerated at all concentrations
[2]
  ocular pigment binding: medium to high
[3]; New Zealand White rabbits, 0.1%, 0.3%, 1% TID topical ocular, 13 weeks plus four-week recovery
  major clinical or pathological findings in life or post-mortem: no major test article related findings
[3]; rabbits, 0.1% w/v TID, day 28, only transiently, still within a normal range
  intraocular pressure: higher
[3]; rabbits, 0.1%, 0.3%, 1.0% w/v TID
  systemic adverse effect on the eye or other organs (ophthalmic and other exams): little to no systemic adverse effect
[3]; rabbits, all concentrations TID, compared to vehicle-based placebo, FIG. 14
  body weight: did not lose weight
[3]; rabbits, all treatment groups, FIG. 16
  central corneal thickness: substantially the same for all treatment groups
[3]; rabbits, all treatment groups, remaining days
  intraocular pressure: substantially the same for all treatment groups
[4]; AH, 0.10% BID days 1-4, single dose day 5, 0.5 hrs post dose
  Ratio of Roflumilast Concentration to PDE4 IC50: 53×
[4]; AH, 0.10% BID days 1-4, single dose day 5, 8 hrs post dose
  Ratio of Roflumilast Concentration to PDE4 IC50: 0×
[4]; AH, 0.30% TID days 1-4, single dose day 5, 0.5 hrs post dose
  Ratio of Roflumilast Concentration to PDE4 IC50: 143×
[4]; AH, 0.30% TID days 1-4, single dose day 5, 8 hrs post dose
  Ratio of Roflumilast Concentration to PDE4 IC50: 4×
[4]; AH, 1.00% TID days 1-4, single dose day 5, 0.5 hrs post dose
  Ratio of Roflumilast Concentration to PDE4 IC50: 476×
[4]; AH, 1.00% TID days 1-4, single dose day 5, 8 hrs post dose
  Ratio of Roflumilast Concentration to PDE4 IC50: 10×
[4]; Cornea, 0.10% BID days 1-4, single dose day 5, 0.5 hrs post dose
  Ratio of Roflumilast Concentration to PDE4 IC50: 2286×
[4]; Cornea, 0.10% BID days 1-4, single dose day 5, 8 hrs post dose
  Ratio of Roflumilast Concentration to PDE4 IC50: 509×
[4]; ICB, AH, and retina/choroid/RPE, 0.3% and 1% TID
  tissue levels relative to the IC50 level: strong elevation in tissue levels above the IC50 level
[4]; ICB, 0.10% BID days 1-4, single dose day 5, 0.5 hrs post dose
  Ratio of Roflumilast Concentration to PDE4 IC50: 66×
[4]; ICB, 0.10% BID days 1-4, single dose day 5, 8 hrs post dose
  Ratio of Roflumilast Concentration to PDE4 IC50: 2×
[4]; ICB, 0.30% TID days 1-4, single dose day 5, 0.5 hrs post dose
  Ratio of Roflumilast Concentration to PDE4 IC50: 247×
[4]; ICB, 0.30% TID days 1-4, single dose day 5, 8 hrs post dose
  Ratio of Roflumilast Concentration to PDE4 IC50: 9×
[4]; ICB, 1.00% TID days 1-4, single dose day 5, 0.5 hrs post dose
  Ratio of Roflumilast Concentration to PDE4 IC50: 534×
[4]; ICB, 1.00% TID days 1-4, single dose day 5, 8 hrs post dose
  Ratio of Roflumilast Concentration to PDE4 IC50: 22×
[4]; RET/CHOR, 0.10% BID days 1-4, single dose day 5, 0.5 hrs post dose
  Ratio of Roflumilast Concentration to PDE4 IC50: 15×
[4]; RET/CHOR, 0.10% BID days 1-4, single dose day 5, 8 hrs post dose
  Ratio of Roflumilast Concentration to PDE4 IC50: 5×
[4]; RET/CHOR, 0.30% TID days 1-4, single dose day 5, 0.5 hrs post dose
  Ratio of Roflumilast Concentration to PDE4 IC50: 91×
[4]; RET/CHOR, 0.30% TID days 1-4, single dose day 5, 8 hrs post dose
  Ratio of Roflumilast Concentration to PDE4 IC50: 14×
[4]; RET/CHOR, 1.00% TID days 1-4, single dose day 5, 0.5 hrs post dose
  Ratio of Roflumilast Concentration to PDE4 IC50: 167×
[4]; RET/CHOR, 1.00% TID days 1-4, single dose day 5, 8 hrs post dose
  Ratio of Roflumilast Concentration to PDE4 IC50: 52×
[4]; cornea, 0.1% BID four days plus single dose day 5, FIG. 5
  duration of terminal level therapeutic concentrations covering the relevant IC50: ~24 h
[5]
  saturation concentration: 6 µg/mL
[6]; 0.1%, 0.3%, 1% TID topical ocular, 13 weeks plus 4 week recovery
  major clinical or pathological findings in life or post-mortem: no major test article related findings
[6]; 0.1%, 0.3%, 1.0% w/v TID
  systemic adverse effect on the eye or other organs (ophthalmic and other exams): little to no systemic adverse effect
[6]; all concentrations TID, compared to vehicle-based placebo, FIG. 11
  body weight: did not lose weight
[6]; all treatment groups over the duration of the study, FIG. 13
  central corneal thickness: substantially consistent for all treatment groups
[6]; all treatment groups, only transient changes seen sporadically, FIG. 12
  intraocular pressure: substantially the same for all treatment groups
PDE4 A, B, D
  IC50 of t-cells for the PDE4 A, B, D targets: 0.07 ng/mL
[7]
  tolerability: well tolerated at all concentrations
